These results are taken from US11712438B2, “Phenyl derivatives as PGE2 receptor modulators” (IDORSIA PHARMACEUTICALS LTD, priority 2017, dated 2023).

One experiment addresses PTRGER4 (EP4) (Homo sapiens, UniProt P35408). The experiment is described as follows: cell-based.
The next experiment has as its target PTGER2 (EP2) (Homo sapiens, UniProt P43116). The experiment is described as follows: cell-based.

SMILES strings stand for the structures.

By IC50 is commonly meant the midpoint of a concentration-inhibition curve.

Sequence of PTRGER4 (EP4) (P35408 whole entry): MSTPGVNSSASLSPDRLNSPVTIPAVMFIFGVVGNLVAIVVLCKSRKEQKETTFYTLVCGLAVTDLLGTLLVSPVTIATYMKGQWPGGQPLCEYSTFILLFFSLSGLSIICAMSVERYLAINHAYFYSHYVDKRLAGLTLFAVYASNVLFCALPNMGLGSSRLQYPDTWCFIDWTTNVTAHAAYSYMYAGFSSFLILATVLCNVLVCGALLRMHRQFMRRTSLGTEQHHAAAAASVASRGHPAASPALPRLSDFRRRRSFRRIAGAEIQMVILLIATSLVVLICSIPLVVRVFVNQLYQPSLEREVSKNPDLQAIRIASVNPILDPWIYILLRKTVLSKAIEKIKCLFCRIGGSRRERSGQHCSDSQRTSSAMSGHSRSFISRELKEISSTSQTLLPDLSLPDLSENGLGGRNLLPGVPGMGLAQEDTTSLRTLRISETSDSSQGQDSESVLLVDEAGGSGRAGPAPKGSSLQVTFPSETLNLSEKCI
Sequence of PTGER2 (EP2) (P43116 whole entry): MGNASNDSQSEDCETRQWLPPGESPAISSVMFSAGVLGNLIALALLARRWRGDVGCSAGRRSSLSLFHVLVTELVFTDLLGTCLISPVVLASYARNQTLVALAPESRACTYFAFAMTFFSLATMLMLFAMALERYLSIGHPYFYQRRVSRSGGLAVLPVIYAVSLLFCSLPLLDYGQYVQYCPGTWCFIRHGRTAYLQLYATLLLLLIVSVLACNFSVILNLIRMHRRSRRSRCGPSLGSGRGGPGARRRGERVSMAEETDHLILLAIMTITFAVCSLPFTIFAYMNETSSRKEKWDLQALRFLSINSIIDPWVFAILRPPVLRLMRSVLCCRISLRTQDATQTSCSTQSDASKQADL
Excerpt for PTRGER4 (EP4): The assay is using the PathHunter™ HEK 293 PTGER2 and PTGER4 b-arrestin cell lines from DiscoverX. The system is based on the Enzyme Fragment Complementation Technology. Two complementing fragments of the b-galactosidase enzyme are expressed within stably transfected cells. The larger portion of b-gal, termed EA for Enzyme Acceptor, is fused to the C-terminus of b-arrestin 2. The smaller fragment, termed ProLink™ tag, is fused to PTGER2 (EP2) or PTRGER4 (EP4) at the C-terminus. Upon activation, b-arrestin is recruited which forces the interaction of ProLink and EA, allowing complementation of the two fragments of b-gal and the formation of a functional enzyme which is capable of hydrolysing the substrate and generating a chemiluminescent signal.
The HEK 293 PTGER4 b-arrestin cells (DiscoverX 93-030-4C1) are detached from culture dishes with a cell dissociation buffer (Invitrogen, 13151-014), and collected in growing medium (GM: DMEM+Glutamax-I (Invitrogen 32430)/10% FCS, 1% Penicilin/streptomycin). 5000 cells per well of a 384 well plate (white with white bottom Greiner 781080) are seeded in 20 ul per well of GM. Plate is incubated at 37° C., 5% CO2 for 24 hours.
Stock solutions of test compounds are made at a concentration of 10 mM in DMSO, and serially diluted in DMSO to concentrations required for inhibition dose response curves (tested concentration range 10 μM-2 nM or 1 μM-0.2 nM).
PGE2 (Cayman 14010, stock solution: 100 uM in DMSO) is used as agonist at 20 nM final concentration, corresponding to EC80.
Five microliters of diluted compounds are transferred into the assay plate. Plate is pre-incubated 15 minutes at 37° C. Then five microliters of PGE2 (final conc. 20 nM) are transferred into the assay plate. Plate is incubated 120 minutes at 37° C.
Twelve μl of reagent are transferred to the assay plate and incubate for 1 hour at room temperature in the dark. Luminescence counts are read on a BMG Fluostar Optima reader according to manufacturers instructions.
For each compound concentration calculate of the percentage of activity compared to DMSO control value as average±STDEV. (each concentration is measured in duplicate)
When compounds were measured multiple times, mean values are given.

In the case of `COc1cc(C)c(C)cc1CCNc1cc(-c2ccc(CC(=O)O)c(SC)c2)ncn1` [Example 191, (4-{6-[2-(2-Methoxy-4,5-dimethyl-phenyl)-ethylamino]-pyrimidin-4-yl}-2-methylsulfanyl-phenyl)-acetic acid], the IC50 amounted to 0.145 µM against PTRGER4 (EP4) and 0.322 µM against PTGER2 (EP2).
Turning to `O=CNc1ccc(-c2cc(NCCc3c(F)cc(Br)cc3F)ncn2)cc1` [Example 238, N-(4-{6-[2-(4-Bromo-2,6-difluoro-phenyl)-ethylamino]-pyrimidin-4-yl}-phenyl)-formamide], the 50% inhibitory concentration (IC50) at PTRGER4 (EP4) came to 0.438 µM; at PTGER2 (EP2), 0.251 µM.
On the same counts, the results for `COc1cc(OC(F)F)ccc1CCNc1cc(-c2ccc(C(=O)O)c(SC)c2)ncn1` [Example 221, 4-{6-[2-(4-Difluoromethoxy-2-methoxy-phenyl)-ethylamino]-pyrimidin-4-yl}-2-methylsulfanyl-benzoic acid] are 0.268 µM and 0.092 µM.
Turning to `CCOc1c(CC(=O)O)ccc(-c2cc(NCCc3c(F)cc(Br)cc3F)ncn2)c1F` [Example 175, (4-{6-[2-(4-Bromo-2,6-difluoro-phenyl)-ethylamino]-pyrimidin-4-yl}-2-ethoxy-3-fluoro-phenyl)-acetic acid], the 50% inhibitory concentration (IC50) at PTRGER4 (EP4) is 0.461 µM; against PTGER2 (EP2) it was 0.258 µM.
Consider `CCOc1cc(-c2cc(NCCc3c(F)cc(Br)cc3F)ncn2)ccc1C(N)=O` [Example 297, 4-{6-[2-(4-Bromo-2,6-difluoro-phenyl)-ethylamino]-pyrimidin-4-yl}-2-ethoxy-benzamide], for which the figures for the IC50 against PTRGER4 (EP4) and at PTGER2 (EP2) were 0.236 µM and 0.021 µM, respectively.
As to `Cc1cc(-c2cc(NCCc3c(F)cc(Br)cc3F)ncn2)ccc1CC(=O)O` [Example 254, (4-{6-[2-(4-Bromo-2,6-difluoro-phenyl)-ethylamino]-pyrimidin-4-yl}-2-methyl-phenyl)-acetic acid], the IC50 on PTRGER4 (EP4) turned out to be 0.88 µM; at PTGER2 (EP2) it was 0.753 µM.
With `CCCc1cc(-c2cc(NCCc3c(F)cc(Br)cc3F)ncn2)ccc1C(=O)NCCO` [Example 306, 4-{6-[2-(4-Bromo-2,6-difluoro-phenyl)-ethylamino]-pyrimidin-4-yl}-N-(2-hydroxy-ethyl)-2-propyl-benzamide], the IC50 against PTRGER4 (EP4) is 0.403 µM; against PTGER2 (EP2), 0.097 µM.
On to `CSc1cc(-c2cc(NCCc3ccc(C(F)(F)F)cc3OC(F)F)ncn2)ccc1C(=O)O` [Example 218, 4-{6-[2-(2-Difluoromethoxy-4-trifluoromethyl-phenyl)-ethylamino]-pyrimidin-4-yl}-2-methylsulfanyl-benzoic acid], for which the IC50 turned out to be 0.917 µM against PTRGER4 (EP4) and 0.69 µM against PTGER2 (EP2).
In the case of `CCCc1cc(-c2cc(NCCc3c(F)cc(Br)cc3F)ncn2)ccc1C(=O)NCCOC` [Example 307, 4-{6-[2-(4-Bromo-2,6-difluoro-phenyl)-ethylamino]-pyrimidin-4-yl}-N-(2-methoxy-ethyl)-2-propyl-benzamide], the concentration for half-maximal inhibition (IC50) came to 0.781 µM against PTRGER4 (EP4) and 0.219 µM on PTGER2 (EP2).
On the same counts, the results for `CCc1cc(-c2cc(NCCc3c(F)cc(Br)cc3F)ncn2)cc(Cl)c1CC(=O)O` [Example 253, (4-{6-[2-(4-Bromo-2,6-difluoro-phenyl)-ethylamino]-pyrimidin-4-yl}-2-chloro-6-ethyl-phenyl)-acetic acid] are 0.17 µM and 0.191 µM.
On the same counts, the results for `O=C(O)Cc1ccc(-c2cc(NCCc3c(F)cc(Br)cc3F)ncn2)cc1OC1CC1` [Example 260, (4-{6-[2-(4-Bromo-2,6-difluoro-phenyl)-ethylamino]-pyrimidin-4-yl}-2-cyclopropoxy-phenyl)-acetic acid] are 0.755 µM and 0.204 µM.
Consider `CCCc1cc(-c2cc(NCCc3cc(C)c(C)cc3OC)ncn2)ccc1C(=O)O` [Example 189], for which the concentration for half-maximal inhibition (IC50) is 0.338 µM on PTRGER4 (EP4) and 0.295 µM at PTGER2 (EP2).
For `COc1cc(C(N)=O)ccc1-c1cc(NCCc2c(F)cc(Br)cc2F)ncn1` [Example 292, 4-{6-[2-(4-Bromo-2,6-difluoro-phenyl)-ethylamino]-pyrimidin-4-yl}-3-methoxy-benzamide], the IC50 against PTRGER4 (EP4) amounted to 0.893 µM; against PTGER2 (EP2) it was 0.1 µM.
As for `Cc1cc(-c2cc(NCCc3c(F)cc(Br)cc3F)ncn2)cc(Cl)c1CC(=O)O` [Example 264, (4-{6-[2-(4-Bromo-2,6-difluoro-phenyl)-ethylamino]-pyrimidin-4-yl}-2-chloro-6-methyl-phenyl)-acetic acid], the IC50 at PTRGER4 (EP4) is 0.465 µM; against PTGER2 (EP2) it was 0.372 µM.
In the case of `Cc1cc(-c2cc(NCCc3c(F)cc(Br)cc3F)ncn2)cc(F)c1CC(=O)O` [Example 256, (4-{6-[2-(4-Bromo-2,6-difluoro-phenyl)-ethylamino]-pyrimidin-4-yl}-2-fluoro-6-methyl-phenyl)-acetic acid], the figures for the half-maximal inhibitory concentration (IC50) on PTRGER4 (EP4) and on PTGER2 (EP2) were 0.584 µM and 0.574 µM, respectively.
In the case of `COC(=O)c1ccc(-c2cc(NCCc3c(F)cc(Br)cc3F)ncn2)cc1SC` [Example 246, 4-{6-[2-(4-Bromo-2,6-difluoro-phenyl)-ethylamino]-pyrimidin-4-yl}-2-methylsulfanyl-benzoic acid methyl ester], the 50% inhibitory concentration (IC50) came out at 0.277 µM on PTRGER4 (EP4) and 0.479 µM on PTGER2 (EP2).
On to `O=C(O)Cc1ccc(-c2cc(NCCc3c(F)cc(Br)cc3F)ncn2)cc1OC(F)(F)F` [Example 236, (4-{6-[2-(4-Bromo-2,6-difluoro-phenyl)-ethylamino]-pyrimidin-4-yl}-2-trifluoromethoxy-phenyl)-acetic acid], for which the values for the concentration for half-maximal inhibition (IC50) at PTRGER4 (EP4) and on PTGER2 (EP2) were 0.351 µM and 0.265 µM, respectively.
On the same counts, the results for `COc1cc(C(F)(F)F)cc(F)c1CCNc1cc(-c2ccc(C(=O)O)c(SC)c2)ncn1` [Example 230, 4-{6-[2-(2-Fluoro-6-methoxy-4-trifluoromethyl-phenyl)-ethylamino]-pyrimidin-4-yl}-2-methylsulfanyl-benzoic acid] are 0.152 µM and 0.662 µM.
For `CCOc1c(C(=O)O)ccc(-c2cc(NCCc3c(F)cc(Br)cc3F)ncn2)c1F` [Example 274, 4-{6-[2-(4-Bromo-2,6-difluoro-phenyl)-ethylamino]-pyrimidin-4-yl}-2-ethoxy-3-fluoro-benzoic acid], the values for the 50% inhibitory concentration (IC50) against PTRGER4 (EP4) and at PTGER2 (EP2) were 0.646 µM and 0.16 µM, respectively.
Take `CCOc1cc(-c2cc(NCCc3cc(C)c(C(F)F)cc3OC)ncn2)ccc1C(=O)O` [Example 199, 4-{6-[2-(4-Difluoromethyl-2-methoxy-5-methyl-phenyl)-ethylamino]-pyrimidin-4-yl}-2-ethoxy-benzoic acid]: the IC50 turned out to be 0.283 µM at PTRGER4 (EP4) and 0.163 µM against PTGER2 (EP2).
For `CCOc1cc(-c2cc(NCCc3c(F)cc(C(F)(F)F)cc3OC)ncn2)ccc1C(=O)O` [Example 226, 2-Ethoxy-4-{6-[2-(2-fluoro-6-methoxy-4-trifluoromethyl-phenyl)-ethylamino]-pyrimidin-4-yl}-benzoic acid], the IC50 on PTRGER4 (EP4) came out at 0.273 µM; against PTGER2 (EP2) it was 0.907 µM.
On the same counts, the results for `CCCn1cc(-c2cc(NCCc3c(F)cc(Br)cc3F)ncn2)cc1C(=O)O` [Example 270, 4-{6-[2-(4-Bromo-2,6-difluoro-phenyl)-ethylamino]-pyrimidin-4-yl}-1-propyl-1H-pyrrole-2-carboxylic acid] are 0.7 µM and 0.316 µM.
Consider `OCCOc1ccc(-c2cc(NCCc3c(F)cc(Br)cc3F)ncn2)cc1` [Example 311, 2-(4-{6-[2-(4-Bromo-2,6-difluoro-phenyl)-ethylamino]-pyrimidin-4-yl}-phenoxy)-ethanol], for which the half-inhibitory concentration (IC50) at PTRGER4 (EP4) was 0.776 µM; against PTGER2 (EP2) it was 0.216 µM.
On to `O=c1c(O)c(-c2ccc(-c3cc(NCCc4c(F)cc(Br)cc4F)ncn3)cc2)c1=O` [Example 243, 3-(4-{6-[2-(4-Bromo-2,6-difluoro-phenyl)-ethylamino]-pyrimidin-4-yl}-phenyl)-4-hydroxy-cyclobut-3-ene-1,2-dione], for which the concentration for half-maximal inhibition (IC50) worked out at 0.061 µM at PTRGER4 (EP4) and 0.041 µM against PTGER2 (EP2).
The matching figures for `O=C1Cc2cc(-c3cc(NCCc4c(F)cc(Br)cc4F)ncn3)ccc2N1` [Example 312, 5-{6-[2-(4-Bromo-2,6-difluoro-phenyl)-ethylamino]-pyrimidin-4-yl}-1,3-dihydro-indol-2-one]: 0.703 µM and 0.175 µM.
As for `CCc1cc(-c2cc(NCCc3c(F)cc(Br)cc3F)ncn2)ccc1C(=O)O` [Example 249, 4-{6-[2-(4-Bromo-2,6-difluoro-phenyl)-ethylamino]-pyrimidin-4-yl}-2-ethyl-benzoic acid], the concentration for half-maximal inhibition (IC50) at PTRGER4 (EP4) came out at 0.467 µM; at PTGER2 (EP2) it was 0.11 µM.
Take `CCOc1cc(-c2cc(NCCc3cc(F)c(F)cc3OC)ncn2)sc1C(=O)O` [Example 179, 5-{6-[2-(4,5-Difluoro-2-methoxy-phenyl)-ethylamino]-pyrimidin-4-yl}-3-ethoxy-thiophene-2-carboxylic acid]: the IC50 against PTRGER4 (EP4) came out at 0.315 µM; against PTGER2 (EP2) it was 0.14 µM.
As to `CCOc1cc(-c2cc(NCCc3c(F)cc(Br)cc3F)ncn2)ccc1C(=O)NCC(C)(C)O` [Example 302, 4-{6-[2-(4-Bromo-2,6-difluoro-phenyl)-ethylamino]-pyrimidin-4-yl}-2-ethoxy-N-(2-hydroxy-2-methyl-propyl)-benzamide], the figures for the IC50 on PTRGER4 (EP4) and on PTGER2 (EP2) were 0.565 µM and 0.121 µM, respectively.
The matching figures for `CCOc1cc(-c2cc(NCCc3c(F)cc(Br)cc3F)ncn2)ccc1C(=O)C(=O)O` [Example 239, (4-{6-[2-(4-Bromo-2,6-difluoro-phenyl)-ethylamino]-pyrimidin-4-yl}-2-ethoxy-phenyl)-oxo-acetic acid]: 0.387 µM and 0.3 µM.
As for `CCOc1cc(-c2cc(NCCc3ccc(C(F)(F)F)cc3OC)ncn2)ccc1C(=O)O` [Example 205, 2-Ethoxy-4-{6-[2-(2-methoxy-4-trifluoromethyl-phenyl)-ethylamino]-pyrimidin-4-yl}-benzoic acid], the values for the concentration for half-maximal inhibition (IC50) at PTRGER4 (EP4) and against PTGER2 (EP2) were 0.681 µM and 0.966 µM, respectively.
Take `COC(=O)Nc1ccc(-c2cc(NCCc3c(F)cc(Br)cc3F)ncn2)cc1` [Example 313, (4-{6-[2-(4-Bromo-2,6-difluoro-phenyl)-ethylamino]-pyrimidin-4-yl}-phenyl)-carbamic acid methyl ester]: the half-inhibitory concentration (IC50) against PTRGER4 (EP4) came out at 0.333 µM; against PTGER2 (EP2) it was 0.143 µM.
